According to paper PMC10628858, “Investigation of new ferrocenyl-artesunate derivatives as antiparasitics” (Dalton Transactions (Cambridge, England : 2003), 2023):

How the values were obtained:
[1] = Kinetic aqueous solubility, turbidimetric assay; type: physicochemical; conditions: turbidimetric assay, buffer not named
Protocol: The kinetic solubility of the complexes was determined by means of a turbidimetric assay. The complexes were first dissolved in dimethyl sulfoxide (DMSO) which was then serially diluted in either phosphate buffered saline (PBS) or 4-(2-hydroxyethyl)-1-piperazineethanesulfonic acid (HEPES). The extent of precipitation was then measured using the absorbance at 620 nm.
PBS was prepared by dissolving one PBS tablet in 200 mL of distilled water at 25 °C yielding a buffered solution containing 10 mM phosphate buffer, 3.0 mM KCl and 140 mM NaCl. The pH was then confirmed to be at 7.4 with a pH meter. A 0.025 M HEPES buffer was prepared by dissolving HEPES free acid 5.00 mmol in distilled water (±180 mL) and titrating the solution with 0.100 M NaOH until a pH 7 was reached, the volume was then made up to 200 mL using distilled water. A 10.0 mM stock of each drug was prepared in DMSO. […] 4 μL of the drugs was then pipetted into a 96-well plate loaded with 196 μL of either the desired buffer solution or DMSO. The test plates were then incubated at 37 °C for 4 hours following which the UV-Vis absorbance was measured at 620 nm and the absorbances corrected by subtracting the blank.

[2] = tested on: P. falciparum, NF54; test: P. falciparum growth inhibition assay (Malstat); type: cell-based, Plasmodium falciparum; conditions: 72 h, maximum concentration tested 6000 nM, three independent experiments in triplicate, ± SEM; read-out: IC50 against P. falciparum, NF54
Protocol: The antimalarial activities of C1 to C4 and F1 to F3 were determined against the wild-type drug sensitive strain of P. falciparum, NF54. […]. Further, a close link between activity and oxidation potentials of the drugs was found. The lower the oxidation potential of the ferrocene moiety, the higher the activity of the final compound, giving directions for future compound development.
The drugs were prepared as 10 mM stocks in sterile DMSO. The drugs were then diluted using freshly prepared growth medium to the desired testing concentrations. Chloroquine and artesunate were used as standards. A full dose–response was preformed using a 96-well plate assay and the IC50 values determined. The maximum concentration tested was 6 μM which was then serially diluted 2-fold in growth media. The plates were incubated at 37 °C for 72 h at 3% O2 and 4% CO2. After 72 h the wells were resuspended and 15 μL of the suspension was transferred to a duplicate plate containing 100 μL of Malstat reagent and 25 μL of nitroblue tetrazolium solution. The plates were allowed 20 minutes in the dark to develop and the absorbance of each well was measured using UV-Vis at 620 nm.

[3] = tested on: P. falciparum Dd2 (chloroquine resistant); set-up: method as in doi:10.1016/j.jorganchem.2023.122633; conditions: chloroquine resistant strain; cited from earlier work
[4] = Stability on HPLC in an aqueous environment; type: physicochemical; conditions: aqueous environment (H2O/MeOH)
Protocol: Resonances belonging to the unsubstituted cyclopentadienyl ring of the ferrocene appeared as a singlet between 4.17 and 4.20 ppm and two triplets which correspond to the substituted ring.
Purity analysis was performed on an Agilent 1260 Infinity II high-performance liquid chromatography (HPLC) system with a DAD detector. A Kinetex C18 100 Å column was used with dimensions, 150 × 4.6 mm with a 5 μm […]. A mobile phase of (A) H2O (B) MeOH was used at gradients of t = 0 min 10% B, t = 15 min 80% B, t = 35 min 80% B, t = 37 min 10% B and t = 45 min 10% B over a 45 min period. The flow rate was set to 1 mL min^−1, and the detection wavelength was set at 260 nm with the reference wavelength at 360 nm. 50 μL sample was injected, with needle washes of MeOH between injections. The peaks were manually integrated to gain the percentage area. Samples were dissolved in 10% MeOH/90% H2O at 100 μM concentrations.

[5] = tested on: P. falciparum 3D7 (chloroquine sensitive); set-up: method as in doi:10.1016/j.jorganchem.2023.122633; conditions: chloroquine sensitive strain; cited from earlier work
[6] = Cyclic voltammetry (oxidation/reduction potentials); type: physicochemical; conditions: Ag/AgCl electrode, scan rate 100 mV s^−1, 0.100 M [NBu4][PF6] in MeCN
[7] = tested on: T. gondii (ΔKu80:mNeon); test: Immunofluorescence microscopy of intracellular T. gondii; type: cell-based, Toxoplasma gondii; conditions: 5 μM; for Parasite replication: 24 hours
Protocol: To determine morphological changes associated with drug treatment, immunofluorescence microscopy of T. gondii was performed after 24 hours or 48 hours of drug treatment at a concentration of 5 μM.
Since artemisinin has previously been reported to accumulate in the membrane of P. falciparum due to its affinity for neutral lipids,[46] it was hypothesized that the complex C3 may be doing the same thing in T. gondii. Then, upon activation of the endoperoxide bridge, this causes oxidative damage to the membranes, leading to disruption and release of parasite cytosolic contents.
Coverslips preseeded with HFF cells were infected with ΔKu80:mNeonGreen and incubated at 37 °C for 1 h to allow invasion. Following this, drug (5 μM) was added, and the plates placed back in the incubator for 24 hours. Cells were washed with 1 mL of sterile PBS, which was then again removed and 500 μL of 4% paraformaldehyde (PFA) was added and incubated at room temperature for 20 minutes. The PFA was removed, cell washed once with PBS. Cells were blocked and permeabilisated with incubation 500 μL of 2% bovine serum albubin (BSA), 0.5% Triton X-100 in PBD overnight at 4 °C. The coverslips were then removed and submerged in distilled water three times and mounted using Fluoromount with DAPI (Southern Biotech). The slides were then visualized using a DeltaVision fluorescent microscope (Applied Precision) and processed using SoftWoRx and FIJI software.

Row | Compound | Aqueous solubility [1] [µM] | Solubility range [1] [µg/mL] | IC50 [2] [µM] | Activity against P. falciparum Dd2 [3] [nM] | Stability on HPLC [4] | Activity against P. falciparum 3D7 [5] [nM] | E 1/2 [6] [V] | E Ox [6] [V] | E Red [6] [V] | ΔE [6] [V] | Parasite replication [7] | Parasite morphology ([7]; 24 hours or 48 hours)
1 | CC1CCC2C(C)C(OC(=O)CCC(=O)NC[c-]3cccc3)OC3OC4(C)CCC1C32OO4.[Fe+2].c1cc[cH-]c1 (stereo not drawn) [Compound C4] | 5 to 10 | 3 to 6 | 0.012 ± 0.002 | 3.0 | high degree of instability | 6.1 | 0.364 | 0.400 | 0.327 | 0.0730 |  | 
2 | CC1CCC2C(C)C(OC(=O)CCC(=O)NCCNC(=O)[c-]3cccc3)OC3OC4(C)CCC1C32OO4.[Fe+2].c1cc[cH-]c1 (stereo not drawn) [Compound C3] | 5 to 10 | 3 to 6 | 4.9 ± 0.93 |  | high degree of instability |  | 0.616 | 0.660 | 0.571 | 0.0890 | completely block replication | novel morphology
3 | CC1CCC2C(C)C(OC(=O)CCC(=O)OCCNC(=O)[c-]3cccc3)OC3OC4(C)CCC1C32OO4.[Fe+2].c1cc[cH-]c1 (stereo not drawn) [Compound C1] |  | 25 to 51 | 3.4 ± 0.53 |  |  |  | 0.623 | 0.658 | 0.588 | 0.0700 | completely block replication | 
